Laboratory results: US8431593B2, “Heteroaryl amide derivatives” (H. Lundbeck A/S, priority 2006, dated 2013)

Each molecule was assayed against T1, P2X7 receptor (Homo sapiens, UniProt Q99572) (assay: P2X7 calcium mobilization assay, high throughput, antagonist activity (Example 4A)). Details: 50% decrease in the fluorescence response of cells exposed to 80 μM of 2′(3′)-O-(4-benzoyl-benzoyl)adenosine 5′-triphosphate; Example 4A; read-out: IC50.
T1 construct: host or cells: SH-SY5Y
T1 sequence (Q99572 1-595): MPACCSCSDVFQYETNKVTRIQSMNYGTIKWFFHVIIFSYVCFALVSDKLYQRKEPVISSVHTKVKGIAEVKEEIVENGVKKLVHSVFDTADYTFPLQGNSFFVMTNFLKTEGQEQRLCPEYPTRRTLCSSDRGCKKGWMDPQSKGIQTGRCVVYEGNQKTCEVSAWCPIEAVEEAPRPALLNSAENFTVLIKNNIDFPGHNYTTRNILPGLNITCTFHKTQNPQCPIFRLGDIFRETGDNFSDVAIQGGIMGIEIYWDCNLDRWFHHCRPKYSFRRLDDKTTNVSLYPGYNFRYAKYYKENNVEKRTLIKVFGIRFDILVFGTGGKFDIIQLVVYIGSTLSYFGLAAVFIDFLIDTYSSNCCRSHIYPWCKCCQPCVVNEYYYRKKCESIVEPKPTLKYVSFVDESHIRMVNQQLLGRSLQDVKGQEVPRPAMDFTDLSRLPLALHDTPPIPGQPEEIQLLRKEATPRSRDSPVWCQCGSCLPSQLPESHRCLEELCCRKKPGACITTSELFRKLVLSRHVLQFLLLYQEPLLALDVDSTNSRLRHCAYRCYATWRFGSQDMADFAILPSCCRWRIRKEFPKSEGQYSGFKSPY
Format: cell-based
Outline: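 100,000 cells/well, plated day -1. Dye 1 h → rinse → compound 1 h, RT → FLIPR^TETRA Ca2+ mobilization. Max RFU minus mean negative control (no agonist); mean agonist-well max as positive control.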

IC50, < 2 µM:
O=C(O)CCCc1cn2c(C(=O)NCC34CC5CC(CC(C5)C3)C4)cccc2n1 [Compound 692, 4-{5-[(adamantan-1-ylmethyl)carbamoyl]imidazo[1,2-a]pyridin-2-yl} butanoic acid]
CC(Cc1cn2c(C(=O)NCC34CC5CC(CC(C5)C3)C4)cccc2n1)C(=O)O (centres unmarked) [Compound 693, 3-{5-[(adamantan-1-ylmethyl)carbamoyl]imidazo[1,2-a]pyridin-2-yl}-2-methylpropanoic acid]
O=C(NCC12CC3CC(CC(C3)C1)C2)c1cccc2nc(C(=O)N3CCCC(C(=O)NCCCO)C3)cn12 (centres unmarked) [Compound 694, N-(adamantan-1-ylmethyl)-2-({3-[(3-hydroxypropyl)carbamoyl]piperidin-1-yl}carbonyl) imidazo[1,2-a]pyridine-5-carboxamide]
CC(C)N(CCCO)C(=O)c1cn2c(C(=O)NCC34CC5CC(CC(C5)C3)C4)cccc2n1 [Compound 695, 5-N-(adamantan-1-ylmethyl)-2-N-(3-hydroxypropyl)-2-N-isopropylimidazol[1,2-a]pyridine-2,5-dicarboxamide]
CC(C)(C)NCCOC(=O)c1cn2c(C(=O)NCC34CC5CC(CC(C5)C3)C4)cccc2n1 [Compound 696, 2-(tert-butylamino)ethyl 5-[(adamantan-1-ylmethyl)carbamoyl] imidazo[1,2-a] pyridine-2-carboxylate]
CC(C)N(CCO)C(=O)c1cn2c(C(=O)NCC34CC5CC(CC(C5)C3)C4)cccc2n1 [Compound 697, 5-N-(adamantan-1-ylmethyl)-2-N-(2-hydroxyethyl)-2-N-isopropylimidazo[1,2-a]pyridine-2,5-dicarboxamide]
CC1CCCCN1C1CCN(C(=O)c2cn3c(C(=O)NCC45CC6CC(CC(C6)C4)C5)cccc3n2)CC1 (centres unmarked) [Compound 699, N-(adamantan-1-ylmethyl)-2-[(2-methyl-1,4′-bipiperidin-1′-yl)carbonyl]imidazo[1,2-a]pyridine-5-carboxamide]
O=C(NCC12CC3CC(CC(C3)C1)C2)c1cccc2nc(C(=O)N3CCN([C@@H]4CCC[C@H]4O)CC3)cn12 [Compound 700, N-(adamantan-1-ylmethyl)-2-({4-[(1R,2R)-2-hydroxycyclopentyl]piperazin-1-yl}carbonyl)imidazo[1,2-a]pyridine-5-carboxamide]
O=C(NCC12CC3CC(CC(C3)C1)C2)c1cccc2nc(C(=O)N3CCN([C@@H]4CCCC[C@H]4O)CC3)cn12 [Compound 701, N-(adamantan-1-ylmethyl)-2-({4-[(1R,2R)-2-hydroxycyclohexyl]piperazin-1-yl}carbonyl)imidazo[1,2-a]pyridine-5-carboxamide]
CC(C)(O)C1CCCCN1C(=O)c1cn2c(C(=O)NCC34CC5CC(CC(C5)C3)C4)cccc2n1 (centres unmarked) [Compound 702, N-(adamantan-1-ylmethyl)-2-{[2-(1-hydroxy-1-methylethyl)piperidin-1-yl]carbonyl}imidazo[1,2-a]pyridine-5-carboxamide]
CN(C)CCNC(=O)C1CCCN(C(=O)c2cn3c(C(=O)NCC45CC6CC(CC(C6)C4)C5)cccc3n2)C1 (centres unmarked) [Compound 704, N-(adamantan-1-ylmethyl)-2-[(3-{[2-(dimethylamino)ethyl]carbamoyl}piperidin-1-yl)carbonyl]imidazo[1,2-a]pyridine-5-carboxamide]
N#CCC1CCN(C(=O)c2cn3c(C(=O)NCC45CC6CC(CC(C6)C4)C5)cccc3n2)CC1 [Compound 705, N-(adamantan-1-ylmethyl)-2-{[4-(cyanomethyl)piperidin-1-yl]carbonyl} imidazo[1,2-a]pyridine-5-carboxamide]
CN1CCN(C)C(CN(C)C(=O)c2cn3c(C(=O)NCC45CC6CC(CC(C6)C4)C5)cccc3n2)C1 (centres unmarked) [Compound 706, 5-N-(adamantan-1-ylmethyl)-2-N-[(l,4-dimethylpiperazin-2-yl)methyl]-2-N-methylimidazo[1,2-a]pyridine-2,5-dicarboxamide]
CN(CC1CCCCN1C)C(=O)c1cn2c(C(=O)NCC34CC5CC(CC(C5)C3)C4)cccc2n1 (centres unmarked) [Compound 707, 5-N-(adamantan-1-ylmethyl)-2-N-methyl-2-N-[(1-methylpiperidin-2-yl)methyl]imidazo[1,2-a]pyridine-2,5-dicarboxamide]
COCc1ccc(CN(C)C(=O)c2cn3c(C(=O)NCC45CC6CC(CC(C6)C4)C5)cccc3n2)nc1 [Compound 710, 5-N-(adamantan-1-ylmethyl)-2-N-{[5-(methoxymethyl)pyridin-2-yl]methyl}-2-N-methylimidazo[1,2-a]pyridine-2,5-dicarboxamide]
CN(Cc1ccc(C(F)(F)F)cn1)C(=O)c1cn2c(C(=O)NCC34CC5CC(CC(C5)C3)C4)cccc2n1 [Compound 711, 5-N-(adamantan-1-ylmethyl)-2-N-methyl-2-N-{[5-(trifluoromethyl)pyridin-2-yl]methyl}imidazo[1,2-a]pyridine-2,5-dicarboxamide]
CCc1ccc(CN(C)C(=O)c2cn3c(C(=O)NCC45CC6CC(CC(C6)C4)C5)cccc3n2)cn1 [Compound 712, 5-N-(adamantan-1-ylmethyl)-2-N-[(6-ethylpyridin-3-yl)methyl]-2-N-methylimidazo[1,2-a]pyridine-2,5-dicarboxamide]
CCc1ccc(CN(C)C(=O)c2cn3c(C(=O)NCC45CC6CC(CC(C6)C4)C5)cccc3n2)nc1 [Compound 713, 5-N-(adamantan-1-ylmethyl)-2-N-[(5-ethylpyridin-2-yl)methyl]-2-N-methylimidazo[1,2-a]pyridine-2,5-dicarboxamide]
O=C(NCC12CC3CC(CC(C3)C1)C2)c1cccc2nc(C(=O)N3CCCN(C4CCC4)CC3)cn12 [Compound 714, N-(adamantan-1-ylmethyl)-2-[(4-cyclobutyl-1,4-diazepan-1-yl)carbonyl]imidazo[1,2-a]pyridine-5-carboxamide]
CCN(Cc1ccc(C2=NCCN2)cc1)C(=O)c1cn2c(C(=O)NCC34CC5CC(CC(C5)C3)C4)cccc2n1 [Compound 715, 5-N-(adamantan-1-ylmethyl)-2-N-[4-(4,5-dihydro-1H-imidazol-2-yl)benzyl]-2-N-ethylimidazo[1,2-a]pyridine-2,5-dicarboxamioe]
CC(C)c1ccc(CN(C)C(=O)c2cn3c(C(=O)NCC45CC6CC(CC(C6)C4)C5)cccc3n2)nc1 [Compound 716, 5-N-(adamantan-1-ylmethyl)-2-N-[(5-isopropylpyridin-2-yl)methyl]-2-N-methylimidazo[1,2-a]pyridine-2,5-dicarboxamide]
CC(C)c1ccc(CN(C)C(=O)c2cn3c(C(=O)NCC45CC6CC(CC(C6)C4)C5)cccc3n2)cn1 [Compound 717, 5-N-(adamantan-1-ylmethyl)-2-N-[(6-isopropylpyridin-3-yl)methyl]-2-N-methylimidazo[1,2-a]pyridine-2,5-dicarboxamide]
Cn1cc2c(n1)CCN(C(=O)c1cn3c(C(=O)NCC45CC6CC(CC(C6)C4)C5)cccc3n1)C2 [Compound 718, N-(adamantan-1-ylmethyl)-2-[(2-methyl-2,4,6,7-tetrahydro-5H-pyrazolo[4,3-c]pyridin-5-yl)carbonyl]imidazo[1,2-a]pyridine-5-carboxamide]
